# Reference: US12459941B2, “Tricyclic IRAK inhibitors” (Rigel Pharmaceuticals, Inc., priority 2022, dated 2025)
# Structures can show the parent of a compound that is named as a salt.
# Key:
# IRAK1 = IRAK1 (Homo sapiens, UniProt P51617); assay: IRAK1 ADP-Glo Kinase assay; format: biochemical; details: 8 pt curve
# IRAK4 = target: T1, IRAK4 (Homo sapiens, UniProt Q9NWZ3); assay: IRAK4 ADP-Glo assay; format: biochemical; details: 8 pt curve; read-out: IRAK4 ADP-Glo Kinase, 8 pt
# T1 construct: purchased Signalchem I12-10G-20
# T1 sequence (Q9NWZ3 1-460): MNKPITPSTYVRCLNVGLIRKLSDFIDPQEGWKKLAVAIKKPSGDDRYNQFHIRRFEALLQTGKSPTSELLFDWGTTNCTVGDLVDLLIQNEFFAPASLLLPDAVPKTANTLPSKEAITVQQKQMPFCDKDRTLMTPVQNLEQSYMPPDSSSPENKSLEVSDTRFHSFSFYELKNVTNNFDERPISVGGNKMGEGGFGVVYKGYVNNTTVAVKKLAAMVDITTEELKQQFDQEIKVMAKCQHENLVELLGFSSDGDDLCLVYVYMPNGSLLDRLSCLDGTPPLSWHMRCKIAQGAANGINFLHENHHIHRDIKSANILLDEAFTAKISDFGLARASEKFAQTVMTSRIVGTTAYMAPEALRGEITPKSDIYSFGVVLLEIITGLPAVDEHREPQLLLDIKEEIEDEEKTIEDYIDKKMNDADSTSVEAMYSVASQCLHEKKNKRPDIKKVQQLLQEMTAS
# Experimental: IRAK4 Kinase Enzyme (Signalchem, I12-10G-20); 0.1M DTT (Signalchem, D86-09B); MBP Substrate (Signalchem, M42-51N); ADP Glo (Promega, V9101); 1M MgCl2 (Teknova, M03304); 1M Tris-HCl pH7.4 (Teknova, T1074); BSA (Sigma (A3059); Distilled H2O
# Wallac Victor2 1420 Multilabel Counter
# The ADP-Glo™ reagents were thawed at ambient temperature. The Kinase Detection Reagent was prepared by mixing kinase detection buffer with the lyophilized kinase detection substrate, and set aside.
# A stock volume of 5× Reaction Kinase Buffer was made with a final concentration of 100 mM MgCl2, 200 mM Tris-HCl, and 0.5 mg/ml of BSA, in distilled H2O with a final pH7.4. A 2× working stock volume of Reaction Kinase Buffer was made containing a final concentration of […].
# The components of IRAK4 Enzyme were thawed on ice. Diluted IRAK4 in 1× Kinase Reaction Buffer (diluted from 2× buffer) was prepared at […]. A […] working stock ATP Assay Solution was prepared in 1× Kinase Reaction Buffer (diluted from 2× buffer).
# The compound was diluted in DMSO from 250 µM in 4-fold series dilutions for 8 points. Then diluted 1:5 in 2× Reaction Buffer in a 96 well plate. 1.01 was transferred to a 384 well plate in duplicate. […] 1 μl of 1 mg/ml stock solution of MBP substrate was added NOTE: MBP can be combined with ATP mix with equal volume and then added at 2 d/well. Final reaction volume was 5 μl.
# The plate was centrifuged and the reaction mixture was incubated at room temperature for 60 minutes or at 30° C. for 30 minutes.
# The reaction was terminated and the remaining ATP was depleted by adding 5 μl of ADP-Glo™ Reagent. The 384-well plate was centrifuged and then the reaction mixture was incubated for another 40 minutes at ambient temperature.
# 10 μl of the Kinase Detection Reagent was added. The plate was centrifuged and then the reaction mixture was incubated for another 30 minutes at ambient temperature.
# The 384-well reaction plate was read using the WALLAC plate reader (Luminescence 0.1s).
# TNFa [1] = assay: TNFa ELISA, PBMC, Resiquimod (R848) stimulated; format: cell-based; details: 10 pt curve
# TNFa [2] = assay: TNFa ELISA, THP1-IFNy, LTA stimulated; format: cell-based; details: 10 pt curve
# IL23-p19 = assay: LPS induced IL23p19 in THP-1 cells (IFNγ primed), sandwich ELISA; format: cell-based; details: Homo sapiens; THP-1 cells primed with IFNγ, LPS 1 μg/mL, 10 pt curve; read-out: IL23-p19 ELISA, THP1-IFNy, LPS, 10 pt
# From the text: LPS Induced IL23p19 in THP-1 Cells (with IFNγ Primed) Assay
# THP-1 Cells (ATCC, Cat #TIB-202), Dimethyl Sulfoxide (DMSO) (Sigma-Aldrich, Cat #D2650), RPMI 1640 (Cellgro, Cat #10-040-CM), Fetal Bovine Serum (Sigma, Cat #F4135), Albumin From Bovine Serum (BSA) (Sigma-Aldrich, Cat #A7906), LPS (Serotype K-235, Sigma, Product Number L 2143), IFNγ (Peprotech, Cat #300-02), Capture antibody: Human IL-23p19 ELISA (e-Bioscience, Cat. #14-7238-85), Detection antibody: Primary Mouse Biotinylated anti-human IL-12(p40/p70) (e-Bioscience, Cat. #13-7129-85), Secondary HRP-conjugated Streptavidin (R&D Systems, Cat #DY998), 1×PBST Washing Buffer (PBS-Tween tablet) (VWR International, Cat #80058-558), ELISA Blocking Buffer (PBS with 1% BSA), ELISA Dilution Buffer (PBS with 1% BSA), 384 Well Flat-Bottom, MaxiSorp Black Immuno Plates (Thermo Scientific, Cat #12-565-346), 384 Well Flat-Bottom, White Tissue Culture Plates (Thermo Scientific, Cat #12-565-343), Super Signal ELISA Pico Chemiluminescent Substrate (Thermo Scientific, Cat #37070), Cell Titer Glo reagent (Promega, Cat #G7573), Positive control, IKK2VI inhibitor (Calbiochem, Cat #401483), AquaMax 4000 plate washer (Molecular Devices), Luminometer, Wallac Victor2 1420 Multilabel Counter.
# On day 1, 50K/well THP-1 cells were seeded and primed with IFNγ (50 ng/mL) in 384-well plates for about 18 hours in RPMI media with 10% FBS. On day 2, the compound was serially diluted in DMSO from 5 mM in 3-fold dilutions, and then diluted 1:125 in RPMI media with 10% FBS. 50 μL/well 2× compound was added to 50 μL/well THP-1 cells (with IFNγ primed) in duplicate in 384 well tissue culture plates. The cells were pre-incubated with compound for 1 hour at 37° C., 5% CO2 before addition of 10 μL/well 11×LPS to give a final concentration of 1 μg/mL LPS. Day 3, after stimulation for 18 hours at 37° C., 5% CO2, the assay plate was centrifuged and 70 μL/well supernatant was harvested. IL-23p19 protein in 70 μL/well of supernatant was measured by sandwich ELISA, and 25 μl/well Cell Titer Glo reagent was added to the remaining cells to measure compound toxicity.
# Human IL-23p19 Sandwich ELISA:
# Maxisorp immuno ELISA plates were pre-coated with 25 μL/well of anti-IL-23p19 capture antibody (2.5 ug/mL) in PBS overnight at room temperature. After washing with 1×PBST, the plates were blocked using 100 μL/well of 1% BSA in PBS for 2 hours at room temperature. The plates were washed three times with 1×PBST and 70 μL/well supernatant were added. The plates were incubated at room temperature for 2 hours with shaking and washed three times with 1×PBST. 25 μL/well of biotin labeled anti-IL-12(p40/p70) detection antibody (100 ng/mL) in PBS with 1% BSA was added and the plates were incubated at room temperature for 2 hours with shaking. After washing three times with 1×PBST, 25 μL/well of streptavidin-HRP (1:200) in PBS with 1% BSA was added and the plates were incubated at room temperature for 20 minutes with shaking. The plates were washed three times with 1×PBST and 25 μL/well of Super Signal ELISA Pico Chemiluminescent Substrate were added. The plates were read with a luminometer, and the chemiluminescence values were entered into Athena (Rigel) for curve fitting, EC50 calculation, and database storage.
# TNFa [3] = assay: TNFa ELISA, dendritic cells, Gardiquimod stimulated; format: cell-based; details: Homo sapiens, Dendritic cell, 10 pt curve
# IRAK1, sequence (P51617 whole entry): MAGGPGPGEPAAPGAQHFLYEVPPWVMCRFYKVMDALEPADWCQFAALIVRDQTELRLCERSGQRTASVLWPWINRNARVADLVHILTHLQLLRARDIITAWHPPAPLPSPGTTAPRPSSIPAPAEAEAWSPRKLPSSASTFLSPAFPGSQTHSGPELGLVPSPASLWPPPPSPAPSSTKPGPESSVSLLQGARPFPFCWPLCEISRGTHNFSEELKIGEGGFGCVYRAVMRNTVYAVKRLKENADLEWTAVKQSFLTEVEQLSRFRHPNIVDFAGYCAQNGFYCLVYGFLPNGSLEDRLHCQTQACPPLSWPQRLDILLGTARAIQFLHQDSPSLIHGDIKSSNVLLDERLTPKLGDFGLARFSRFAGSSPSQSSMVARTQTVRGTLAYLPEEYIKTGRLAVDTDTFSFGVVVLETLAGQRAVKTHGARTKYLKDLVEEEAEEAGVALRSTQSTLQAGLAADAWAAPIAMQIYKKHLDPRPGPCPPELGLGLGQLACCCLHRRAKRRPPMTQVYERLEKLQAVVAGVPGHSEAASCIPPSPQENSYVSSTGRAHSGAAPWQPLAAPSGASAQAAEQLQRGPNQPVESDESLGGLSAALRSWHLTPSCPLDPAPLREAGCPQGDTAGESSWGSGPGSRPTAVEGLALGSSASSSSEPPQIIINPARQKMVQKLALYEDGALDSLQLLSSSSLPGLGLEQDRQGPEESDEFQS
Structure (SMILES),IC50 (IRAK1) [nM],IC50 (IRAK4) [nM],EC50 (TNFa [1]; formic acid salt) [nM],EC50 (TNFa [2]) [nM],EC50 (IL23-p19) [nM],EC50 (TNFa [1]) [nM],EC50 (TNFa [3]) [nM]
"O=C1CC[C@@H](COc2nccc3cc4c(=O)[nH]cc(C5CCCC5)c4cc23)N1 [I-13, (S)-4-cyclopentyl-6-((5-oxopyrrolidin-2-yl)methoxy)pyrido[3,4-g]isoquinolin-1(2H)-one]",6260,55.9,–,–,8470,304,–
"O=C1CC[C@@H](COc2nccc3cc4c(=O)[nH]cc(CC(F)F)c4cc23)N1 [I-17, (S)-4-(2,2-difluoroethyl)-6-((5-oxopyrrolidin-2-yl)methoxy)pyrido[3,4-g]isoquinolin-1(2H)-one]",10600,21.4,–,–,16100,360,607
"CC(C)(O)c1c[nH]c(=O)c2cc3ccnc(OC[C@@H]4CCC(=O)N4)c3cc12 [I-20, (S)-4-(2-hydroxypropan-2-yl)-6-((5-oxopyrrolidin-2-yl)methoxy)pyrido[3,4-g]isoquinolin-1(2H)-one]",–,303,–,–,38700,6970,–
"CC#Cc1c[nH]c(=O)c2cc3ccnc(OC[C@@H]4CCC(=O)N4)c3cc12 [I-24, (S)-6-((5-oxopyrrolidin-2-yl)methoxy)-4-(prop-1-yn-1-yl)pyrido[3,4-g]isoquinolin-1(2H)-one]",–,55.7,–,–,377,283,316
"Cc1c[nH]c(=O)c2cc3ccnc(OC[C@@H]4CCC(=O)N4)c3cc12 [I-25, (S)-4-methyl-6-((5-oxopyrrolidin-2-yl)methoxy)pyrido[3,4-g]isoquinolin-1(2H)-one]",–,69.2,–,–,79.6,392,6220
"NCC#Cc1c[nH]c(=O)c2cc3ccnc(OC[C@@H]4CCC(=O)N4)c3cc12 [I-29, (S)-4-(3-aminoprop-1-yn-1-yl)-6-((5-oxopyrrolidin-2-yl)methoxy)pyrido[3,4-g]isoquinolin-1(2H)-one]",34600,1430,–,–,14000,1460,9090
"O=C1CC[C@@H](COc2nccc3cc4c(=O)[nH]cc(C(F)(F)F)c4cc23)N1 [I-30, (S)-6-((5-oxopyrrolidin-2-yl)methoxy)-4-(trifluoromethyl)pyrido[3,4-g]isoquinolin-1(2H)-one]",–,212,–,–,2260,2020,18300
"CC[C@@H]1[C@H](F)C(=O)N[C@@H]1COc1nccc2cc3c(=O)[nH]cc(C#N)c3cc12 [I-47, 6-(((2S,3S,4S)-3-ethyl-4-fluoro-5-oxopyrrolidin-2-yl)methoxy)-1-oxo-1,2-dihydropyrido[3,4-g]isoquinoline-4-carbonitrile]",531,35,–,–,–,78.8,78.2

# These reach a lower IC50 (IRAK4). Values come first.
IC50 (IRAK1) [nM],IC50 (IRAK4) [nM],EC50 (TNFa [1]; formic acid salt) [nM],EC50 (TNFa [2]) [nM],EC50 (IL23-p19) [nM],EC50 (TNFa [1]) [nM],EC50 (TNFa [3]) [nM],Structure (SMILES)
9080,10.4,–,–,6980,4470,2010,"O=C1CC[C@@H](COc2nccc3cc4c(=O)[nH]cc(CCO)c4cc23)N1 [I-22, (S)-4-(2-hydroxyethyl)-6-((5-oxopyrrolidin-2-yl)methoxy)pyrido[3,4-g]isoquinolin-1(2H)-one]"
3840,6.7,135,274,–,–,–,"Cc1c[nH]c(=O)c2cc3ccnc(OC[C@@H]4CCC(=O)N4)c3cc12 [I-2, (S)-4-methyl-6-((5-oxopyrrolidin-2-yl)methoxy)pyrido[3,4-g]isoquinolin-1(2H)-one formic acid salt]"
8370,6.2,–,–,501,68.3,–,"CC(C)c1c[nH]c(=O)c2cc3ccnc(OC[C@@H]4CCC(=O)N4)c3cc12 [I-15, (S)-4-isopropyl-6-((5-oxopyrrolidin-2-yl)methoxy)pyrido[3,4-g]isoquinolin-1(2H)-one]"
777,5.8,–,–,778,422,1500,"O=C1CC[C@@H](COc2nccc3cc4c(=O)[nH]cc(C#CCO)c4cc23)N1 [I-21, (S)-4-(3-hydroxyprop-1-yn-1-yl)-6-((5-oxopyrrolidin-2-yl)methoxy)pyrido[3,4-g]isoquinolin-1(2H)-one]"
4770,4.9,–,–,956,187,196,"O=C1CC[C@@H](COc2nccc3cc4c(=O)[nH]cc(C5CC5)c4cc23)N1 [I-14, (S)-4-cyclopropyl-6-((5-oxopyrrolidin-2-yl)methoxy)pyrido[3,4-g]isoquinolin-1(2H)-one]"
